From ChEMBL document CHEMBL1151147, “Furanoid lignans from Larrea tridentata” (J Nat Prod, 1990) come the findings set out here.

Common to all, as to type: functional, organism-based
Experiment [1] relates to Rattus norvegicus. Nature of the experiment: Estrogenic activity in Sprague-Dawley rat at 30 mg/kg. Set-up: dose 30 mg/kg.
Experiment [2] deals with Rattus norvegicus. Description: Antiimplantation activity in Sprague-Dawley rat assessed as decrease in implantation sites at 30 mg/kg administered postcoitally. Set-up: dose 30 mg/kg.
The test system of experiment [3] is Rattus norvegicus. Description: Antiimplantation activity in Sprague-Dawley rat at 5 mg/kg, po administered postcoitally. Set-up: dose 5 mg/kg.
In experiment [4] the test system is Rattus norvegicus. Description: Antiimplantation activity in Sprague-Dawley rat assessed as decrease in fertility rate at 30 mg/kg administered postcoitally. Set-up: dose 30 mg/kg.
The subject of experiment [5] is Rattus norvegicus. Nature of the experiment: Antiimplantation activity in Sprague-Dawley rat assessed as absence of viable fetuses at 15 mg/kg administered postcoitally. Set-up: dose 15 mg/kg.
In experiment [6] the test system is Rattus norvegicus. Description: Antiimplantation activity in Sprague-Dawley rat administered postcoitally.
Experiment [7] relates to Rattus norvegicus. Description: Antiimplantation activity in Sprague-Dawley rat assessed as decrease in implantation sites at 60 mg/kg administered postcoitally. Set-up: dose 60 mg/kg.

Activity calls are given as the source filed them. The rule behind the calls is not given here.

With `C[C@H]1[C@H](c2ccc(O)cc2)c2cc(O)c(O)cc2C[C@H]1C`, the result with Rattus norvegicus [1], with Rattus norvegicus [2], in the experiment with Rattus norvegicus [4], in the experiment on Rattus norvegicus [5] and in the experiment on Rattus norvegicus [7] was Active. The outcome in the experiment on Rattus norvegicus [3] was inactive. In addition, the Activity entry in the experiment on Rattus norvegicus [6] is “Dose-dependent effect”.
